The values that follow come from PMC8873464, “Tuning the rate of aggregation of hIAPP into amyloid using small-molecule modulators of assembly” (Nature Communications, 2022).

pKd: −log10 of the molar value.

Common to all, as to assay type: binding
In experiment [1] the target is T1, human islet amyloid polypeptide (wt hIAPP) (Homo sapiens, UniProt P10997).
T1 construct: gene IAPP; 37-residue synthetic peptide, amidated C-terminus, Cys-2/Cys-7 disulfide, monomeric
T1 sequence (P10997 34-70 limits assumed): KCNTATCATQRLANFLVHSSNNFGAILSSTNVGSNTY
The experiment in a line: Tyr37 fluorescence quenching titration; also SPR (Kd […]) and native ESI-MS/CID; known inhibitor used as control.

The target in experiment [2] is T1, human islet amyloid polypeptide (wt hIAPP). The experiment in a line: Tyr37 fluorescence quenching and native ESI-MS (weak adduct); ThT acceleration of aggregation; no SPR response, no significant NMR CSPs.
Experiment [3] has the same target. The experiment in a line: Tyr37 fluorescence quenching titration; also native ESI-MS, SPR (Kd […]), 2D NMR CSPs and ThT aggregation inhibition.

As a reminder, the pKd is the negative decadic logarithm of the Kd, by convention in mol/L. Consider `O=C(O[C@@H]1Cc2c(O)cc(O)cc2O[C@@H]1c1cc(O)c(O)c(O)c1)c1cc(O)c(O)c(O)c1` [EGCG], for which, in experiment [1], the pKd was 4.89.

Consider `O=C(Nc1ccccc1F)c1cnc(-c2ccccc2)nc1CCNC(=O)C1CCCCC1` [YX-A-1], for which, in experiment [2], the pKd is ~3.55.

Take `CC(=O)N[C@H]1C[C@@H](c2ccc(NC(=O)Cn3nnc4ccccc43)cc2)O[C@@H](C(C)C)C1` [YX-I-1]: the negative-log Kd (pKd) in experiment [3] was 4.49.
